One experiment relates to E. coli DC2. The class given is cell-based, Escherichia coli. The note with it: DC2. An excerpt:
(§1) The following bacterial strains were utilized: Escherichia coli UB1005 (wt) and its antibiotic supersusceptible derivative DC2 (Clark, 1984); Excherichia coli SC9251 and its polymixin B rasistant mutant pmrA SC9252 (Peterson, et al., 1987) Pseudomonas aeruginosa H187 (wt) (Angus, et al., 1987) and its antibiotic-sensitive derivative H188 (Zimmerman, W, Antimicrob. Agents Chemother. 18: 94-100, 1980); methicillin sensitive Staphylococcus aureus K147 (Kreiswirth, et al., 1983); Staphylococcus aureus SAP0017, a methicillin resistant clinical isolate from Dr. A. Chow (University of British Columia); Bacillus subtilis, an environmental wt lab strain. Enterococcus faecalis are ATCC 29212 cells and Staphylococcus epidermidis was a clinical isolate from Dr. D. Speert (University of British Columbia). Antifungal activity was tested using a clinical lab isolate of Candida albicans. Salmonella typhinurium C57 and C610 (Fields, P.I., et al., Science 243: 1059-1062 (1989) Corynebacterium xerosis was an environmental isolate (University of British Columbia).
(§2) It is now apparent that agar-based assays severely underestimate antifungal activity as well as activity against gram negative microorganisms (Kondejewski, et al., 1996). Consequently, in the studies reported herein, a liquid-broth method was used to measure the antibiotic properties of the peptides. […] Briefly, cells were grown overnight at 37° C. in LB and diluted in the same medium. Serial dilutions of antibiotics were added to the microtitre plates in a volume of 100 μL followed by 10 μL of bacteria to give a final inoculum of 5×10^5 CFU/mL. Plates were incubated at 37° C. overnight and MICs determined as the lowest antibiotic concentration that inhibited growth.
(§3) The results from antimicrobial and hemolytic assays are combined to provide a “Therapeutic Index” (TI) for each peptide with respect to individual microorganisms. As reported herein, the TI is calculated as the hemolytic activity divided by the antimicrobial activity. The TI thus is a measure of specificity of the particular peptide for microbial membranes as opposed to human blood cell membranes. In the present studies, antimicrobial activities are reported as minimum inhibitory concentrations (MIC)—the lowest concentration of peptide (μg/ml) found to inhibit growth of the particular microbe. Hemolytic activity is reported as the concentration of peptide that effected complete lysis of blood cells after four hours. Thus, in the context of the present invention high TI values indicate microbial specificity and relative lack of toxicity.

Another experiment concerns E. faecalis. The class given is cell-based, Enterococcus faecalis.
From the text: as §1
as §2, with “growth. […]” for “growth.”

In another experiment the test system is P. aeruginosa H188. The experiment is classed as cell-based, Pseudomonas aeruginosa. The note with it: H188.
From the text: as §1
as §2, with “growth. […]” for “growth.”

For a further experiment, the system named is E. coli UB1005. The class given is cell-based, Escherichia coli. The note with it: UB1005.
From the text: as §1
as §2, with “growth. […]” for “growth.”

In a further experiment the test system is S. aureus K147. The experiment is classed as cell-based, Staphylococcus aureus.
From the text: as §1, §2, §3

A further experiment concerns S. aureus SAP0017. The class given is cell-based, Staphylococcus aureus.
From the text: as §1, §2, §3

The next experiment concerns B. subtilis. The experiment is classed as cell-based, Bacillus subtilis.
From the text: as §1
as §2, with “growth. […]” for “growth.”

Experiment [1] in a line: Displacement of dansyl-polymyxin from LPS. The experiment is classed as binding, P. aeruginosa. The note with it: read-out: LPS binding affinity: peptide concentration to displace 50% of dansyl-polymyxin B from LPS; Tables 1, 4, 7. The text has this:
In order to determine whether ring size affects the interaction between the peptide and bacterial membranes, we studied the interaction between the GS ring analogs and bacterial lipopolysaccharide (LPS). It has been shown previously that dansyl-polymixin (DPX) is a good probe for cationic binding sites on both purified LPS as well as whole bacterial cells (Example 8; Moore, et al., 1986; Sawyer, et al., 1988; Hancock, 1981). […] The LPS binding activity of various GS analogs was investigated, as discussed above.
Dansyl-polymixin (DPX) displacement from P. aeruginosa LPS was measured as described (Moore, et al., 1986). Briefly, peptides were titrated into cuvettes containing 3 μg of LPS per mL and 2.5 μM dansyl-polymixin (approximately 90% saturation of LPS binding sites) in 1 mL of 5 mM sodium HEPES buffer, pH 7.0, and the decrease in fluorescence recorded. A plot of the inverse of the percent inhibition as a function of the inverse of inhibitor concentration gave a value for I50, the inhibitor concentration resulting in 50% displacement of dansyl-polymixin from LPS (−1/× intercept).

The next experiment deals with C. Albicans. The experiment is classed as cell-based, Candida albicans.
From the text: as §1
as §2, with “growth. […]” for “growth.”

The next experiment concerns C. xeroses. The class given is cell-based, Corynebacterium xerosis.
From the text: as §1
as §2, with “growth. […]” for “growth.”

The test system of another experiment is P. aeruginosa H187. The experiment is classed as cell-based, Pseudomonas aeruginosa. To be noted: H187.
From the text: as §1, §2, §3

The next experiment concerns S. typhinurium C610. The experiment is classed as cell-based, Salmonella typhinurium.
From the text: as §1
as §2, with “growth. […]” for “growth.”

In another experiment the test system is S. epidermidis. The experiment is classed as cell-based, Staphylococcus epidermidis.
From the text: as §1
as §2, with “growth. […]” for “growth.”

Another experiment relates to S. typhinurium C587. The experiment is classed as cell-based, Salmonella typhinurium.
From the text: as §1
as §2, with “growth. […]” for “growth.”

pIC50: −log10 of the molar value.

`CC(C)C[C@@H]1NC(=O)[C@H](CCCCN)NC(=O)[C@H](C(C)C)NC(=O)[C@@H]2CCCN2C(=O)[C@@H](Cc2ccc(O)cc2)NC(=O)[C@H](CC(C)C)NC(=O)[C@@H](CCCCN)NC(=O)[C@H](C(C)C)NC(=O)[C@H](CCCCN)NC(=O)[C@H](CC(C)C)NC(=O)[C@@H]2CCCN2C(=O)[C@@H](Cc2ccc(O)cc2)NC(=O)[C@H](C(C)C)NC(=O)[C@H](CCCCN)NC1=O` [GS14K11]: the “Minimum Inhibitory Concentration (activity)” value in the experiment with E. coli DC2 was found to be 3.1 µg/mL; in the experiment with E. faecalis, 1.5 µg/mL; in the experiment with P. aeruginosa H188, 5 µg/mL; with E. coli UB1005, 6.2 µg/mL; in the experiment with S. aureus K147 it was 25 µg/mL; with S. aureus SAP0017 it was 25 µg/mL. For the same compound, the “Minimum Inhibitory Concentration (activity)” value in the experiment with B. subtilis amounted to 25 µg/mL; with C. Albicans, 6.2 µg/mL; in the experiment with C. xeroses it was 0.8 µg/mL; with P. aeruginosa H187 it was 37 µg/mL; with S. typhinurium C610 it was 6.2 µg/mL; with S. epidermidis, 3.1 µg/mL. In addition, the pIC50 in [1] was 4.30.

Turning to `CC(C)C[C@@H]1NC(=O)[C@H](CCCCN)NC(=O)[C@H](C(C)C)NC(=O)[C@@H]2CCCN2C(=O)[C@@H](Cc2ccc(O)cc2)NC(=O)[C@H](CC(C)C)NC(=O)[C@H](CCCCN)NC(=O)[C@H](C(C)C)NC(=O)[C@H](CCCCN)NC(=O)[C@H](CC(C)C)NC(=O)[C@@H]2CCCN2C(=O)[C@@H](Cc2ccc(O)cc2)NC(=O)[C@H](C(C)C)NC(=O)[C@@H](CCCCN)NC1=O` [GS14K4], the “Minimum Inhibitory Concentration (activity)” value with E. coli DC2 stood at 3.1 µg/mL; with E. faecalis, 1.5 µg/mL; in the experiment with P. aeruginosa H188, 3.1 µg/mL; with E. coli UB1005, 6.2 µg/mL; in the experiment with S. aureus K147 it was 100 µg/mL; with S. aureus SAP0017, 50 µg/mL. Besides, the “Minimum Inhibitory Concentration (activity)” value in the experiment on B. subtilis worked out at 25 µg/mL; in the experiment on C. xeroses, 1.5 µg/mL; in the experiment on P. aeruginosa H187 it was 25 µg/mL; in the experiment with S. typhinurium C610, 4 µg/mL; in the experiment with S. epidermidis it was 2 µg/mL. Besides, the pIC50 in [1] is 4.03.

Regarding `CC(C)C[C@@H]1NC(=O)[C@H](CCCCN)NC(=O)[C@H](C(C)C)NC(=O)[C@@H]2CCCN2C(=O)[C@@H](Cc2ccc(O)cc2)NC(=O)[C@H](CC(C)C)NC(=O)[C@H](CCCCN)NC(=O)[C@H](C(C)C)NC(=O)[C@H](CCCCN)NC(=O)[C@H](CC(C)C)NC(=O)[C@@H]2CCCN2C(=O)[C@@H](Cc2ccc(O)cc2)NC(=O)[C@@H](C(C)C)NC(=O)[C@H](CCCCN)NC1=O` [GS14V5], the “Minimum Inhibitory Concentration (activity)” value in the experiment with E. coli DC2 turned out to be 3.1 µg/mL; in the experiment on E. faecalis it was 1.5 µg/mL; in the experiment with P. aeruginosa H188, 62 µg/mL; in the experiment with E. coli UB1005, 15 µg/mL; with S. aureus K147, 100 µg/mL; in the experiment with S. aureus SAP0017, 50 µg/mL. Moreover, the “Minimum Inhibitory Concentration (activity)” value in the experiment on B. subtilis was 200 µg/mL; in the experiment with C. Albicans it was 6.2 µg/mL; in the experiment on P. aeruginosa H187, 100 µg/mL; in the experiment with S. typhinurium C587 it was 100 µg/mL; with S. epidermidis, 3.1 µg/mL. Further, the pIC50 in [1] was 4.48.

As for `CC(C)C[C@@H]1NC(=O)[C@H](CCCCN)NC(=O)[C@H](C(C)C)NC(=O)[C@@H]2CCCN2C(=O)[C@@H](Cc2ccc(O)cc2)NC(=O)[C@H](CC(C)C)NC(=O)[C@H](CCCCN)NC(=O)[C@@H](C(C)C)NC(=O)[C@H](CCCCN)NC(=O)[C@H](CC(C)C)NC(=O)[C@@H]2CCCN2C(=O)[C@@H](Cc2ccc(O)cc2)NC(=O)[C@H](C(C)C)NC(=O)[C@H](CCCCN)NC1=O` [GS14V10], the “Minimum Inhibitory Concentration (activity)” value is 3.1 µg/mL in the experiment on E. coli DC2; 1.5 µg/mL with E. faecalis; 200 µg/mL with P. aeruginosa H188; 200 µg/mL in the experiment on E. coli UB1005; 200 µg/mL in the experiment with S. aureus K147; 50 µg/mL in the experiment on S. aureus SAP0017. Also, the “Minimum Inhibitory Concentration (activity)” value in the experiment with C. Albicans is 17 µg/mL; in the experiment with C. xeroses, 0.8 µg/mL; in the experiment on P. aeruginosa H187, greater than 200 µg/mL; in the experiment on S. typhinurium C610, 200 µg/mL; with S. typhinurium C587, greater than 200 µg/mL; in the experiment with S. epidermidis it was 3.1 µg/mL. The pIC50 in [1] is 4.74.

On to `CC(C)C[C@@H]1NC(=O)[C@H](CCCCN)NC(=O)[C@H](C(C)C)NC(=O)[C@@H]2CCCN2C(=O)[C@@H](Cc2ccc(O)cc2)NC(=O)[C@H](CC(C)C)NC(=O)[C@H](CCCCN)NC(=O)[C@H](C(C)C)NC(=O)[C@H](CCCCN)NC(=O)[C@@H](CC(C)C)NC(=O)[C@@H]2CCCN2C(=O)[C@@H](Cc2ccc(O)cc2)NC(=O)[C@H](C(C)C)NC(=O)[C@H](CCCCN)NC1=O` [GS14L8], for which the “Minimum Inhibitory Concentration (activity)” value was found to be 3.1 µg/mL with E. coli DC2; 1.5 µg/mL with E. faecalis; 3.1 µg/mL in the experiment on P. aeruginosa H188; 6.2 µg/mL in the experiment on E. coli UB1005; 50 µg/mL in the experiment with S. aureus K147; 25 µg/mL with S. aureus SAP0017. The “Minimum Inhibitory Concentration (activity)” value with C. Albicans stood at 6.2 µg/mL; in the experiment with C. xeroses, 0.8 µg/mL; with P. aeruginosa H187 it was 37 µg/mL; in the experiment on S. typhinurium C610, 6.2 µg/mL; with S. epidermidis it was 3.1 µg/mL. Further, the pIC50 in experiment [1] is 4.21.

The values above are taken from patent US6358921B1, “Antimicrobial peptide compositions and method” (priority 1996, dated 2002).
